In PubChem BioAssay AID1259407 (Chemical Carcinogenesis Research Information System (CCRIS), 2018) one finds mutagenic call data, which are given here for five compounds.

In the data set the test system is CCRIS mutagenicity, Ames/micronucleus/aberration tests. The data set can be described thus: CCRIS mutagenicity studies.
The mark [1] stands for this setting: Test System: AMES SALMONELLA TYPHIMURIUM, Strain/Indicator: TA98, Metabolic Activation: NONE, Method: STANDARD PLATE.

Structures are written as SMILES. Calls of active or inactive are those of the source. How the calls were made is not given here.

Regarding `CCCCCCCCCCCC(=O)[O][Sn]([CH2]CCC)([CH2]CCC)[O]C(=O)CCCCCCCCCCC`, the mutagenic call runs as follows: (Test System: AMES SALMONELLA TYPHIMURIUM, Strain/Indicator: TA97, Metabolic Activation: HAMSTER, LIVER, S-9, AROCLOR 1254 (10%), Method: PREINCUBATION) “inactive; negative”; (Test System: AMES SALMONELLA TYPHIMURIUM, Strain/Indicator: TA97, Metabolic Activation: HAMSTER, LIVER, S-9, AROCLOR 1254 (30%), Method: PREINCUBATION) “inactive; negative”; (Test System: AMES SALMONELLA TYPHIMURIUM, Strain/Indicator: TA97, Metabolic Activation: NONE, Method: PREINCUBATION) “inactive; negative”; (Test System: AMES SALMONELLA TYPHIMURIUM, Strain/Indicator: TA97, Metabolic Activation: RAT, LIVER, S-9, AROCLOR 1254 (10%), Method: PREINCUBATION) “inactive; negative”; (Test System: AMES SALMONELLA TYPHIMURIUM, Strain/Indicator: TA97, Metabolic Activation: RAT, LIVER, S-9, AROCLOR 1254 (30%), Method: PREINCUBATION) “inactive; negative”; (Test System: AMES SALMONELLA TYPHIMURIUM, Strain/Indicator: TA98, Metabolic Activation: HAMSTER, LIVER, S-9, AROCLOR 1254 (10%), Method: PREINCUBATION) “inactive; negative”. The mutagenic call by setting is: (Test System: AMES SALMONELLA TYPHIMURIUM, Strain/Indicator: TA98, Metabolic Activation: HAMSTER, LIVER, S-9, AROCLOR 1254 (30%), Method: PREINCUBATION) “inactive; negative”; (Test System: AMES SALMONELLA TYPHIMURIUM, Strain/Indicator: TA98, Metabolic Activation: NONE, Method: PREINCUBATION) “inactive; negative”; (Test System: AMES SALMONELLA TYPHIMURIUM, Strain/Indicator: TA98, Metabolic Activation: RAT, LIVER, S-9, AROCLOR 1254 (10%), Method: PREINCUBATION) “inactive; negative”; (Test System: AMES SALMONELLA TYPHIMURIUM, Strain/Indicator: TA98, Metabolic Activation: RAT, LIVER, S-9, AROCLOR 1254 (30%), Method: PREINCUBATION) “inactive; negative”; (Test System: AMES SALMONELLA TYPHIMURIUM, Strain/Indicator: TA100, Metabolic Activation: HAMSTER, LIVER, S-9, AROCLOR 1254 (10%), Method: PREINCUBATION) “inactive; negative”; (Test System: AMES SALMONELLA TYPHIMURIUM, Strain/Indicator: TA100, Metabolic Activation: HAMSTER, LIVER, S-9, AROCLOR 1254 (30%), Method: PREINCUBATION) “inactive; negative”. For the same compound, the mutagenic call (Test System: AMES SALMONELLA TYPHIMURIUM, Strain/Indicator: TA100, Metabolic Activation: NONE, Method: PREINCUBATION) is “inactive; negative”; the mutagenic call (Test System: AMES SALMONELLA TYPHIMURIUM, Strain/Indicator: TA100, Metabolic Activation: RAT, LIVER, S-9, AROCLOR 1254 (10%), Method: PREINCUBATION) was “inactive; negative”; the mutagenic call (Test System: AMES SALMONELLA TYPHIMURIUM, Strain/Indicator: TA100, Metabolic Activation: RAT, LIVER, S-9, AROCLOR 1254 (30%), Method: PREINCUBATION) is “inactive; negative”; the mutagenic call (Test System: AMES SALMONELLA TYPHIMURIUM, Strain/Indicator: TA1535, Metabolic Activation: HAMSTER, LIVER, S-9, AROCLOR 1254 (10%), Method: PREINCUBATION) is “inactive; negative”; the mutagenic call (Test System: AMES SALMONELLA TYPHIMURIUM, Strain/Indicator: TA1535, Metabolic Activation: HAMSTER, LIVER, S-9, AROCLOR 1254 (30%), Method: PREINCUBATION) was “inactive; negative”; the mutagenic call (Test System: AMES SALMONELLA TYPHIMURIUM, Strain/Indicator: TA1535, Metabolic Activation: NONE, Method: PREINCUBATION) is “inactive; negative”. The mutagenic call runs as follows: (Test System: AMES SALMONELLA TYPHIMURIUM, Strain/Indicator: TA1535, Metabolic Activation: RAT, LIVER, S-9, AROCLOR 1254 (10%), Method: PREINCUBATION) “inactive; negative”; (Test System: AMES SALMONELLA TYPHIMURIUM, Strain/Indicator: TA1535, Metabolic Activation: RAT, LIVER, S-9, AROCLOR 1254 (30%), Method: PREINCUBATION) “inactive; negative”.
Turning to `O=P(O)(O)CCCl`, the mutagenic call runs as follows: (End Point: In vitro chromosomal aberrations, Test System: Chinese hamster ovary (CHO-WBL) cells, Metabolic Activation: None) “inactive; negative”; (End Point: In vitro chromosomal aberrations, Test System: Chinese hamster ovary (CHO-WBL) cells, Metabolic Activation: Rat, Liver, S-9, Aroclor 1254) “inactive; negative”; (Test System: Chinese hamster ovary cells, Strain/Indicator: CHO-K1-BH4 (HGPRT)/6-Thioguanine, Metabolic Activation: None, Method: Suspension/Plate?) “inactive; negative (an increase in mutation frequency at 2.5 mg/ml not confirmed in repeat”; (Test System: Chinese hamster ovary cells, Strain/Indicator: CHO-K1-BH4 (HGPRT)/6-Thioguanine, Metabolic Activation: Rat, Liver, S-9, Aroclor 1254, Method: Suspension/Plate?) “inactive; negative (an increase in mutation frequency at 2.5 mg/ml not confirmed in repeat”.
For the compound `N#Cc1ccc(/C=C\c2ccc([N+](=O)[O-])cc2)cc1`, the mutagenic call (Test System: AMES SALMONELLA TYPHIMURIUM, Strain/Indicator: TA98 (NR), Metabolic Activation: NONE, Method: STANDARD PLATE) was “active; positive”; the mutagenic call (Test System: AMES SALMONELLA TYPHIMURIUM, Strain/Indicator: TA98 (NR), Metabolic Activation: S-9, Method: STANDARD PLATE) is “active; positive”; the mutagenic call under setting [1] was “active; positive”; the mutagenic call (Test System: AMES SALMONELLA TYPHIMURIUM, Strain/Indicator: TA98, Metabolic Activation: S-9, Method: STANDARD PLATE) was “active; positive”; the mutagenic call (Test System: AMES SALMONELLA TYPHIMURIUM, Strain/Indicator: TA100 (NR), Metabolic Activation: NONE, Method: STANDARD PLATE) is “inactive; negative”; the mutagenic call (Test System: AMES SALMONELLA TYPHIMURIUM, Strain/Indicator: TA100 (NR), Metabolic Activation: S-9, Method: STANDARD PLATE) is “inactive; negative”. The mutagenic call is, setting by setting: (Test System: AMES SALMONELLA TYPHIMURIUM, Strain/Indicator: TA100, Metabolic Activation: NONE, Method: STANDARD PLATE) “active; positive”; (Test System: AMES SALMONELLA TYPHIMURIUM, Strain/Indicator: TA100, Metabolic Activation: S-9, Method: STANDARD PLATE) “active; positive”.
In the case of `O=[N+]([O-])c1ccc2c(O)cc3cccc4ccc1c2c43`, the mutagenic call by setting is: (Test System: AMES SALMONELLA TYPHIMURIUM, Strain/Indicator: TA98(1,8-DNP6), Metabolic Activation: NONE, Method: STANDARD PLATE) “active; positive”; (Test System: AMES SALMONELLA TYPHIMURIUM, Strain/Indicator: TA98(1,8-DNP6), Metabolic Activation: RAT, LIVER, S-9, AROCLOR 1254, Method: STANDARD PLATE) “active; positive”; under setting [1], “active; positive”; (Test System: AMES SALMONELLA TYPHIMURIUM, Strain/Indicator: TA98, Metabolic Activation: RAT, LIVER, S-9, AROCLOR 1254, Method: STANDARD PLATE) “active; positive”; (Test System: AMES SALMONELLA TYPHIMURIUM, Strain/Indicator: YG1024, Metabolic Activation: NONE, Method: STANDARD PLATE) “active; positive”; (Test System: AMES SALMONELLA TYPHIMURIUM, Strain/Indicator: YG1024, Metabolic Activation: RAT, LIVER, S-9, AROCLOR 1254, Method: STANDARD PLATE) “active; positive”.
As to `C[C@]12CC[C@@H]3c4cc(O)c(O)cc4CC[C@H]3[C@@H]1CCC2=O`, the mutagenic call is, setting by setting: (Test System: Ames Salmonella typhimurium, Strain/Indicator: TA98, Metabolic Activation: None, Method: Standard plate) “inactive; negative”; (Test System: Ames Salmonella typhimurium, Strain/Indicator: TA98, Metabolic Activation: Rat, liver, S-9, Method: Standard plate) “inactive; negative”; (Test System: Ames Salmonella typhimurium, Strain/Indicator: TA100, Metabolic Activation: None, Method: Standard plate) “inactive; negative”; (Test System: Ames Salmonella typhimurium, Strain/Indicator: TA100, Metabolic Activation: Rat, liver, S-9, Method: Standard plate) “inactive; negative”.
